Data: patent publication US20240060072A1, “METHOD AND COMPOSITION FOR TREATING NON-ALCOHOLIC FATTY LIVER DISEASE, ASSOCIATED CONDITIONS AND SYMPTOMS” (THE HONG KONG POLYTECHNIC UNIVERSITY, priority 2022, published 2024)

Tests used:
[1] = system: HFD-fed mice; test: CCl4 or STZ treatment of HFD-fed mice: hepatic mRNA by RT-qPCR; assay type: in vivo, mouse; conditions: compared to untreated HFD-fed mice
[2] = system: mouse SCD1 promoter; test: SCD1 promoter luciferase reporter assay and RT-qPCR in HEK293 cells; assay type: cell-based; conditions: DHEA 100 μM for 24 h
Description: In vitro luciferase reporter assay was performed to further validate the expression of SCD1 is transcriptional regulated by GPR110. Plasmid harbouring luciferase gene driven by the mouse SCD1 promoter (−2000 to +100) was constructed to transfect into HEK293 cells. Typically, HEK293 cells were cultured in DMEM supplemented with 10% FBS, 100 U/ml penicillin and 100 μg/ml streptomycin at 37° C. and 5% CO2, and then seeded in 6-well plates followed by transfection with pGL3-SCD1 promoter and adenoviral vector expressing either GPR110 (ADV-GPR110) or GFP (ADV-GFP) by using the transfection reagent (#E4981, Promega, WI, USA). There was no change of luciferase activity of pGL3- SCD1 promoter-luciferase transfected HEK293 cells under the treatment of GPR110 ligand DHEA, unless the HEK293 cells were pre-infected with adenovirus overexpressing GPR110 (ADV-GPR110; FIG. 9C). The overexpression of GPR110 in ADV-GPR110 infected cells and inductions of SCD1 mRNA expression by treatment of DHEA were also validated by RT-qPCR (FIG. 9D). The changes in hepatocyte lipid profiles by the expression level of GPR110 and SCD1 were also checked. In agreement with the in vivo data, the overexpression of GPR110 increased the intracellular CHO (FIG. 9E), TG (FIG. 9F) and FFA (FIG. 9G). […] In summary, the transcription level of SCD1 is regulated by GPR110. […]

[3] = system: SCD1; test: SCD1 inhibitor MK8245 in HFD-fed rAAV-GPR110 mice: GPR110 expression, body weight, glucose homeostasis; assay type: in vivo, mouse
Description: FIG. 10A schematically depicts a scheme of different treatments to a mouse model according to certain embodiments, where eight-week-old male C57BL/6J mice were infected with either 3×10^11 copies of rAAV encoding GPR110 (rAAV-GPR110) via i.v. or control (rAAV-GFP) via i.v. after 8-week HFD feeding, and then 2 weeks after infection treated with SCD1 inhibitor, MK8245, at 10 mg/kg/week via oral administration (p.o.) or inhibitor vehicle (inhibitor-Veh.) via p.o.;
To evaluate the impacts of high hepatic GPR110 level on liver metabolism, GPR110 was overexpressed in the hepatocytes of HFD-fed mice by liver-directed rAAV/thyroxine binding globulin (TBG)-mediated gene expression system (FIGS. 2A and 3A). In general, 8-week-old C57BL/6J male mice were housed in pathogen-free conditions at controlled temperature with a 12-hour light-dark cycle and access to food and water ad libitum. The 8-week-old male mice were divided into two groups and fed with high-fat diet (HFD, 20% protein, 45% fat, 35% carbohydrates, Research Diets Inc., New Brunswick, NJ, USA), or standard chow diet (STC, 18.3% protein, 10.2% fat, 71.5% carbohydrates, Research Diet Inc., New Brunswick, NJ, USA) in some other examples, for 8 weeks. The recombinant adeno-associated virus vector rAAV2/8 transduction was conducted as described previously (Lee et al, 2016; Cheng et al, 2022). Briefly, mice were tail vein injected with 3×10^11 rAAV2/8 vector harboring either green fluorescent protein (GFP) or GPR110. In other examples, for antisense oligonucleotide (ASO) delivery, validated ASOs against mouse GPR110 were provided by Ionis Pharmaceuticals and injected subcutaneously once a week at 5 mg/kg body weight to the mice. In some other examples, for SCD1 inhibitor delivery, MK-8245 (MedChemExpress, NJ, USA) was gavage at 10 mg/kg once a week. All measurements were carried out in a randomized order. Typically, glucose profile measurement was performed in terms of the blood glucose and insulin level by collecting the blood samples from the tip of the tail of the mouse models using a glucometer. For the glucose tolerance test (GTT), insulin tolerance test (ITT) and pyruvate tolerance test (PTT), mice were fasted overnight prior to intraperitoneal injection of glucose (1 g/kg body weight (BW)) (Sigma, St. Louis, MO), 0.75 U/kg BW insulin (Novolin R, Novo Nordisk, Bagsvaerd, Denmark) or 1 g/kg BW pyruvate (Sigma, St. Louis, MO). Blood glucose levels were measured from the tip of tail vein at 15, 30, 60, 90 and 120 minutes after injection.

[4] = system: SCD1; test: SCD1 inhibitor MK8245 in HFD-fed rAAV-GPR110 mice: circulating lipids, liver enzymes, hepatic steatosis
Description: In general, 8-week-old C57BL/6J male mice were housed in pathogen-free conditions at controlled temperature with a 12-hour light-dark cycle and access to food and water ad libitum. […] Briefly, mice were tail vein injected with 3×10^11 rAAV2/8 vector harboring either green fluorescent protein (GFP) or GPR110. […] All measurements were carried out in a randomized order.
Typically, for plasma and hepatic lipid level, serum levels of triglyceride (TG) and total cholesterol (CHO) were measured using commercial kit (Biosino, biotechnology and science INC, China) according to the manufacturer's instructions. Hepatic lipids were extracted using Folch methodology and liver extract was dissolved in ethanol for TG and CHO measurements. Both serum and hepatic levels of free fatty acid (FFA) were measured using commercial kit (Solarbio, China).
Typically, for liver function assay, the alanine aminotransferase (ALT) and aspartate aminotransferase (AST) levels were measured in serum using commercial kits (Stanbio, USA).

[5] = HFD-fed rAAV-GPR110 mice, vs untreated littermates
[6] = rAAV-GPR110 mice, chronic treatment for 11 weeks, 10 mg/kg/week p.o.
[7] = HFD-fed rAAV-GPR110 mice, 10 mg/kg/week p.o.
[8] = compared to the rAAV-GPR110 littermates

ClC(Cl)(Cl)Cl [CCl4]
SCD1 mRNA expression level [1]: significantly higher | expression of hepatic GPR110 mRNA [1]: significantly increased

CC/C=C\C/C=C\C/C=C\C/C=C\C/C=C\C/C=C\CCC(=O)NCCO [DHEA]
SCD1 mRNA expression ([2]; ADV-GPR110 infected HEK293 cells, RT-qPCR): inductions | luciferase activity of pGL3-SCD1 promoter-luciferase ([2]; HEK293 cells not pre-infected with ADV-GPR110): no change

O=C(O)Cn1nnc(-c2cc(N3CCC(Oc4cc(F)ccc4Br)CC3)no2)n1 [MK8245, 5-[3-[4-(2-bromo-5-fluorophenoxy)-1-piperidinyl]-5-isoxazolyl]-2H-tetrazole-2-acetic acid]
body weight ([3]; HFD-fed rAAV-GPR110 mice, 10 mg/kg/week p.o., vs untreated littermates): lowered | HOMR-IR [3, 5]: improved | fasting glucose level [3, 5]: improved | insulin sensitivity by ITT [3, 5]: no change | performance in GTT [3, 5]: improved | performance in PTT [3, 5]: improved | expression of GPR110 mRNA [3, 6]: did not affect | expression of GPR110 protein [3, 6]: did not affect | HDL ([4]; HFD-fed rAAV-GPR110 mice): relatively higher | LDL level ([4]; HFD-fed rAAV-GPR110 mice): no differences detected | circulating FFA level ([4]; HFD-fed rAAV-GPR110 mice): no change | severity of fibrosis ([4]; HFD-fed rAAV-GPR110 mice): partially reduced | circulating CHO level [4, 7]: lowered | circulating TG level [4, 7]: lowered | ALT level [4, 8]: alleviated | AST level [4, 8]: alleviated

CN(N=O)C(=O)N[C@@H]1[C@@H](O)[C@H](O)[C@@H](CO)O[C@@H]1O [STZ]
SCD1 mRNA expression level [1]: significantly higher | expression of hepatic GPR110 mRNA [1]: significantly increased
